Reference: patent US20240025918A1, “KRAS G12D Inhibitors” (Jacobio Pharmaceuticals Co., Ltd, priority 2020, published 2024)

Columns and labels:
[1] = target: T1, GDP-loaded HIS-KRAS(G12D, aa 1-169) (Homo sapiens, UniProt P01116, G12D); test: SOS1 catalyzed nucleotide exchange assay (TR-FRET); assay type: biochemical; settings: 4 hours at 25° C.
T1 construct: GDP-loaded HIS-KRAS(G12D, aa 1-169)
Description: GDP-loaded HIS-KRAS(G12D, aa 1-169) was pre-incubated with a compound in the presence of 10 nM GDPin a 384-well plate (Greiner) for 15 min, then purified SOS1 ExD(Flag tag, aa 564-1049), BODIPY™ FL GTP (Invitrogen) and MAb (monoclonal antibody) Anti 6HIS-Tb cryptate Gold (Cisbio) were added to the assay wells (Final concentration: 1.5 nM GDP-loaded HIS-KRAS(G12D), 5 nM GDP, 0.5 μM SOS1 ExD, 80 nM BODIPY™ FL GTP, 52.5 ng/mL MAb Anti 6HIS-Tb cryptate Gold) and incubated for 4 hours at 25° C. Wells containing same percent of DMSO served as vehicle control, and wells without KRAS served as low control. TR-FRET signals were read on Tecan Spark multimode microplate reader. The parameters were F486: Excitation 340 nm, Emission 486 nm, Lag time 100 μs, Integration time 200 μs; F515: Excitation 340 nm, Emission 515 nm, Lag time 100 μs, Integration time 200 μs. TR-FRET ratios for each individual wells were calculated by equation: TR-FRET ratio=(Signal F515/Signal F486)*10000. The percent of activation of compounds treated wells were normalized between vehicle control and low control (% Activation=(TR-FRET ratioCompound treated−TR-FRET ratioLow control)/(TR-FRET ratioVehicle control−TR-FRET ratioLow control)*100%). Then the data were analyzed by fitting a 4-parameter logistic model or calculating in Excel to calculate IC50 values.

[2] = target: T2, GppNp-loaded HIS-KRAS(G12D, aa 1-169) and cRAF RBD (Homo sapiens, UniProt P01116, G12D); test: GTP-KRAS and cRAF interaction assay (HTRF); assay type: biochemical; settings: 2 hours at 25° C.
T2 construct: GppNp-loaded HIS-KRAS(G12D, aa 1-169)
Description: GppNp-loaded HIS-KRAS(G12D, aa 1-169) was pre-incubated with a compound in the presence of 200 μM GTP in a 384-well plate (Greiner) for 15 min, then cRAF RBD(GST tag, aa 50-132, CreativeBioMart), MAb Anti GST-d2 (Cisbio) and MAb Anti 6HIS-Tb cryptate Gold (Cisbio) were added to the assay wells (Final concentration: 2.0 nM GppNp-loaded HIS-KRAS(G12D), 100 μM GTP, 35 nM cRAF RBD, 1 μg/mL MAb Anti GST-d2, 52.5 ng/mL MAb Anti 6HIS-Tb cryptate Gold) and incubated for 2 hours at 25° C. Wells containing same percent of DMSO served as vehicle control, and wells without KRAS served as low control. HTRF signals were read on Tecan Spark multimode microplate reader and HTRF ratios were calculated under manufacturer's instructions. The percent of activation of compounds treated wells were normalized between vehicle control and low control (% Activation=(HTRF ratioCompound treated−HTRF ratioLow control)/(HTRF ratioVehicle control−HTRF ratioLow control)*100%). Then the data were analyzed by fitting a 4-parameter logistic model or calculating in Excel to calculate IC50 values.

[3] = system: AGS cells expressing KRAS G12D; test: Phospho-ERK1/2(THR202/TYR204) HTRF assay; assay type: cell-based; settings: Homo sapiens; Phospho-ERK1/2 in AGS cells, 2 hours incubation
Description: AGS cells expressing KRAS G12D were cultured in F12K medium (Gibco) containing 10% fetal bovine serum (Gibco). The AGS cells in culture medium were seeded in 96-well plates at a concentration of 40,000 cells/well and then put in a 37° C./5% CO2 cell incubator to incubate overnight. The next day, culture medium was removed and the compound diluted in assay medium (F12K, 0.1% FBS) was added in each well. After 2 hours incubation in a 37° C./5% CO2 cell incubator, the assay medium in 96-well plates was removed, then 50 μL of 1× blocking reagent-supplemented lysis buffer (Cisbio) was added and the plates were incubated at 25° C. for 45 min with shaking. 10 μL of cell lysates from the 96-well plates were transferred to a 384-well plate (Greiner) containing 2.5 μL/well HTRF® pre-mixed antibodies (Cisbio 64AERPEH). Incubate 4 hours at 25° C. and then read HTRF signals on Tecan Spark multimode microplate reader. The data were analyzed using a 4-parameter logistic model to calculate IC50 values.

[4] = system: AsPC-1; test: Cell growth inhibition assay, AsPC-1 (CellTiter-Glo); assay type: cell-based; settings: Homo sapiens, ASPC1, 144 h; AsPC-1 cell viability, 6 days incubation
Description: AsPC-1 cultured in RPMI-1640 medium (Gibco) containing 10% fetal bovine serum (Gibco). Cells in culture medium were plated in 96-well plates at a concentration of 1000 cells/well (100 μL/well) and allowed to attach overnight.
(§1) The next day, compounds were diluted in culture medium and added to the plates. After 6 days incubation in a 37° C./5% CO2 cell incubator, the cell viability was detected by CellTiter-Glo® Luminescent Cell Viability Assay kit (Promega). Luminescent signals were read on Tecan Spark multimode microplate reader and analyzed using a 4-parameter logistic model to calculate IC50 values.

[5] = system: AGS; test: Cell growth inhibition assay, AGS (CellTiter-Glo); assay type: cell-based; settings: Homo sapiens, 144 h; AGS cell viability, 6 days incubation
Description: AGS cultured in F12K medium (Gibco) containing 10% fetal bovine serum (Gibco). Cells in culture medium were plated in 96-well plates at a concentration of 500 cells/well (100 μL/well) and allowed to attach overnight.
as §1

T2 sequence (P01116 1-169 isoform P01116-2 G12D): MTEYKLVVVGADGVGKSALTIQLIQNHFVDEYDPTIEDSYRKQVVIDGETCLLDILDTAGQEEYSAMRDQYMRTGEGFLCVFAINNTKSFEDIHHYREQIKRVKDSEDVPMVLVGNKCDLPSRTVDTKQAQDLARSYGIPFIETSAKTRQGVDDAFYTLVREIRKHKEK
T1 sequence (P01116 1-169 isoform P01116-2 G12D): as above

| SMILES | IC50 [1] [nM] | IC50 [2] [nM] | IC50 [3] [nM] | IC50 [4] [nM] | IC50 [5] [nM] |
| --- | --- | --- | --- | --- | --- |
| C#Cc1cccc2cc(O)cc(-c3c(F)cc4c(N5CC6CCC(C5)N6)nc(OCC5(CN6CCCOCC6)CC5)nc4c3F)c12 [Compound 37] | 4.36 | 50.1 | 10.9 | 89.9 | 6.48 |
| C#Cc1cccc2cc(O)cc(-c3c(F)cc4c(N5CC6CCC(C5)N6)nc(OCC5(CN6CCC7(CCOC7)C6)CC5)nc4c3F)c12 (centres unmarked) [Compound 45] | 26.4 | 408 | 125 | 653 | 74.2 |
| C#Cc1cccc2cc(O)cc(-c3c(F)cc4c(N5CC6CCC(C5)N6)nc(OCC5(CN6CC7(CCOC7)C6)CC5)nc4c3F)c12 [Compound 46] | 5.92 | 242 | 23.1 | 488 | 55.4 |
| C#Cc1cccc2cc(O)cc(-c3c(F)cc4c(N5CC6CCC(C5)N6)nc(OCC5(CN6CCC7(CCCO7)C6)CC5)nc4c3F)c12 (centres unmarked) [Compound 47] | 2.58 | 92.1 | 31.4 | 227 | 29 |
| C#Cc1cccc2cc(O)cc(-c3c(F)cc4c(N5CC6CCC(C5)N6)nc(OCC5(CN6CC7(CCCCO7)C6)CC5)nc4c3F)c12 [Compound 48] | 1.49 | 118 | 38.6 | 315 | 36.4 |
| C#Cc1cccc2cc(O)cc(-c3c(F)cc4c(N5CC6CCC(C5)N6)nc(OCC5(CN6C[C@@H]7OCCO[C@@H]7C6)CC5)nc4c3F)c12 [Compound 50] | 1.39 | 42.5 | 9.39 | 70 | 3.49 |
| C#Cc1cccc2cc(O)cc(-c3c(F)cc4c(N5CC6CCC(C5)N6)nc(OCC5(CN6C7CCC6CC(=O)C7)CC5)nc4c3F)c12 [Compound 51] | 1.26 | 59.4 | 12.1 | 66 | 1.25 |
| C#Cc1cccc2cc(O)cc(-c3c(F)cc4c(N5CC6CCC(C5)N6)nc(OCC5(CN6CCc7sccc7C6)CC5)nc4c3F)c12 [Compound 52] | 4.26 | 286 | 271 | 93 | 32.4 |
| C#Cc1cccc2cc(O)cc(-c3c(F)cc4c(N5CC6CCC(C5)N6)nc(OCC5(CN6CCC7(CCOCC7)C6)CC5)nc4c3F)c12 [Compound 55] | 1.37 | 23.1 | 5.39 | 77 | 7.71 |
| C#Cc1cccc2cc(O)cc(-c3c(F)cc4c(N5CC6CCC(C5)N6)nc(OCC5(CN6CC7(CCO7)C6)CC5)nc4c3F)c12 [Compound 56] | 2.05 | 53.2 | 7.66 | 182 | 14.9 |
